Data from paper PMC2765816 (European journal of pharmacology, 2008).

Key:
adenosine A2B receptor = biological target: T1, adenosine A2B receptor (Homo sapiens, UniProt P29275); settings: ref Hide et al., 1992; cited from earlier work
T1 sequence (P29275 1-332): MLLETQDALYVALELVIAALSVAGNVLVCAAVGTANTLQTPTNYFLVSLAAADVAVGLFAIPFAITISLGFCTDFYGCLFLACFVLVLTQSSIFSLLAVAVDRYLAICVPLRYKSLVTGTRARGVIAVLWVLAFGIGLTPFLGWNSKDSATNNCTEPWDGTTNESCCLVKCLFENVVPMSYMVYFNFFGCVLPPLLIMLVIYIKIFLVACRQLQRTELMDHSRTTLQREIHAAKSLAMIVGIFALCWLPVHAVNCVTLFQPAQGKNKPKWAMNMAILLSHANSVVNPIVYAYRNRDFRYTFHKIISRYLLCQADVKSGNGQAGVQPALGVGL

[1] = biological target: adenosine A2A-CFP receptor (Homo sapiens, UniProt P29274); settings: 0.45 M; agonist 2 μM NECA
Chain of adenosine A2A-CFP receptor (P29274 1-363): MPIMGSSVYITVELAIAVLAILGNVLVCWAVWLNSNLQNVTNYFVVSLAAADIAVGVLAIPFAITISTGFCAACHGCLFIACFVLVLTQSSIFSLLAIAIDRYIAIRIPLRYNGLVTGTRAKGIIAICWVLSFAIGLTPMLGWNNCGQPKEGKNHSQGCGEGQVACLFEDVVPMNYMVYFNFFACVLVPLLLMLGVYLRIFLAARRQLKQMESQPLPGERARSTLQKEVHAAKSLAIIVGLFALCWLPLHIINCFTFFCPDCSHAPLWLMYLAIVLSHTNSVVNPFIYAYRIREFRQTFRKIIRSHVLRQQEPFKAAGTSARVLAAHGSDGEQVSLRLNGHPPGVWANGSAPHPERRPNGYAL

| SMILES | activity at the adenosine A2B receptor (adenosine A2B receptor) | effect on agonist-induced internalization of A2A-CFP [1] |
| --- | --- | --- |
| CCNC(=O)[C@H]1O[C@@H](n2cnc3c(N)nc(NCCc4ccc(CCC(=O)NCCN)cc4)nc32)[C@H](O)[C@@H]1O [APEC, 2-[4-(2-aminoethylaminocarbonylethyl)phenylethylamino]-5′-N-ethylcarboxamidoadenosine] | inactive | – |
| OC[C@H]1O[C@@](CO)(O[C@H]2O[C@H](CO)[C@@H](O)[C@H](O)[C@H]2O)[C@@H](O)[C@@H]1O [hyperosmolar sucrose, sucrose] | – | prevented agonist-induced internalization |
